Test results reported in patent US9969823B1, “Synthesis and polymerization of vinyl triazolium ionic liquids” (United States Department of Energy, priority 2011, dated 2018).
Like-named read-outs stand apart in the source and are kept apart here.

Test: Solubility of ionic liquid monomers (IL) and their polymers (PIL) in solvents
Type: physicochemical
Conditions: for solubility: 10 mg/ml, IL (monomer), first symbol; for solubility in water: IL monomers
[1] = organic solvent or mixture, ACN, read-out: Solubility (IL/PIL) ACN
[2] = organic solvent or mixture, Acetone, read-out: Solubility (IL/PIL) Acetone
[3] = organic solvent or mixture, DCM, read-out: Solubility (IL/PIL) DCM
[4] = organic solvent or mixture, DMF, read-out: Solubility (IL/PIL) DMF
[5] = organic solvent or mixture, DMSO, read-out: Solubility (IL/PIL) DMSO
[6] = organic solvent or mixture, Ethyl acetate, read-out: Solubility (IL/PIL) Ethyl acetate
[7] = organic solvent or mixture, Hexanes, read-out: Solubility (IL/PIL) Hexanes
[8] = organic solvent or mixture, MeOH, read-out: Solubility (IL/PIL) MeOH
[9] = water, H2O, read-out: Solubility (IL/PIL) H2O

Structure (SMILES)	solubility [1] [µg/mL]	solubility [2] [µg/mL]	solubility [3] [µg/mL]	solubility [4] [µg/mL]	solubility [5] [µg/mL]	solubility [6] [µg/mL]	solubility [7] [µg/mL]	solubility [8] [µg/mL]	solubility [9] [µg/mL]	solubility in water (water)
C=Cc1cn(Cc2ccccc2)n[n+]1C [BMVT Tf2N, 1-Benzyl-3-methyl-4-vinyl-triazolium bis(trifluoromethansulfonyl)amide]	> 10000	> 10000	> 10000	> 10000	> 10000	> 10000	< 10000	> 10000	< 10000	
C=Cc1cn(CCCCCCCCCC)n[n+]1C [DMVT, 1-Decyl-3-methyl-4-vinyl-triazolium bis(trifluoromethansulfonyl)amide]	> 10000	> 10000	< 10000	> 10000	> 10000	> 10000	< 10000	> 10000	< 10000	
C=Cc1cn(CCO)n[n+]1C [EtOHMVT, 2-(3-Methyl-4vinyl-triazolium-1-yl)ethanol bis(trifluoromethansulfonyl)amide]	> 10000	> 10000	> 10000	> 10000	> 10000	> 10000	< 10000	> 10000	> 10000	soluble

More lines, now with the values ahead:

solubility [1] [µg/mL]	solubility [2] [µg/mL]	solubility [3] [µg/mL]	solubility [4] [µg/mL]	solubility [5] [µg/mL]	solubility [6] [µg/mL]	solubility [7] [µg/mL]	solubility [8] [µg/mL]	solubility [9] [µg/mL]	solubility in water (water)	Structure (SMILES)
> 10000	> 10000	> 10000	> 10000	> 10000	> 10000	< 10000	> 10000	< 10000		C=Cc1cn(CCCCCC)n[n+]1C [HMVT, 1-Hexyl-3-methyl-4-vinyl-triazolium bis(trifluoromethansulfonyl)amide]
> 10000	> 10000	> 10000	> 10000	> 10000	> 10000	< 10000	> 10000	< 10000		C=Cc1cn(-c2ccccc2)n[n+]1C [PMVT Tf2N, 1-Phenyl-3-methyl-4-vinyl-triazolium bis(trifluoromethansulfonyl)amide]
> 10000	> 10000	> 10000	> 10000	> 10000	> 10000	< 10000	> 10000	> 10000	soluble	C=Cc1cn(CCOCCOCCOC)n[n+]1C [TEGMVT, 1-TEG-3-methyl-4-vinyl-triazolium bis(trifluoromethansulfonyl)amide]
